Legend:
Alternaria solani = assay: Microtest: activity against early blight caused by Alternaria solani (Alteso); type: cell-based; settings: micro titer plate, 405 nm, 7 days after inoculation, relative growth vs compound-free control (100%)
Protocol: Microtest The active compounds were formulated separately as a stock solution having a concentration of 10000 ppm in dimethyl sulfoxide. M1: Activity Against Early Blight Caused by Alternaria solani (Alteso) The stock solutions were mixed according to the ratio, pipetted onto a micro titer plate (MTP) and diluted with water to the stated concentrations. A spore suspension of Alternaria solani in an aqueous biomalt or yeast-bactopeptone-glycerine solution was then added. The plates were placed in a water vapor-saturated chamber at a temperature of 17° C. Using an absorption photometer, the MTPs were measured at 405 nm 7 days after the inoculation. The measured parameters were compared to the growth of the active compound-free control variant (100%) and the fungus-free and active compound-free blank value to determine the relative growth in % of the pathogens in the respective active compounds.

Botrytis cinerea [1] = assay: Preventative fungicidal control of Botrytis cinerea on leaves of green pepper (Botrci P1); type: in vivo; settings: 150 ppm spray; green pepper inoculated next day; % diseased leaf area after 5 days; untreated control 100
Protocol: The spray solutions were prepared in several steps: The stock solution were prepared: a mixture of acetone and/or dimethylsulfoxide and the wetting agent/emulsifier Wettol, which is based on ethoxylated alkylphenoles, in a relation (volume) solvent-emulsifier of 99 to 1 was added to 25 mg of the compound to give a total of 5 ml. Water was then added to total volume of 100 ml. This stock solution was diluted with the described solvent-emulsifier-water mixture to the given concentration. G1 Preventative Fungicidal Control of Botrytis cinerea on Leaves of Green Pepper (Botrci P1) Young seedlings of green pepper were grown in pots to the 4 to 5 leaf stage. These plants were sprayed to run-off with an aqueous suspension, containing the concentration of active ingredient or their mixture mentioned in the table below. The next day the plants were inoculated with a aqueous biomalt solution containig the spore suspension of Botrytis cinerea. Then the plants were immediately transferred to a humid chamber. After 5 days at 22 to 24° C. and a relative humidity close to 100% the extent of fungal attack on the leaves was visually assessed as % diseased leaf area.

Botrytis cinerea [2] = assay: Long lasting control of Botrytis cinerea on leaves of green pepper (Botrci P7); type: in vivo; settings: 63 ppm spray; green pepper inoculated 7 days later; untreated control 100
Protocol: The spray solutions were prepared in several steps: The stock solution were prepared: a mixture of acetone and/or dimethylsulfoxide and the wetting agent/emulsifier Wettol, which is based on ethoxylated alkylphenoles, in a relation (volume) solvent-emulsifier of 99 to 1 was added to 25 mg of the compound to give a total of 5 ml. Water was then added to total volume of 100 ml. This stock solution was diluted with the described solvent-emulsifier-water mixture to the given concentration. G4 Long Lasting Control of Botrytis cinerea on Leaves of Green Pepper (Botrci P7) Young seedlings of green pepper were grown in pots to the 4 to 5 leaf stage. These plants were sprayed to run-off with an aqueous suspension, containing the concentration of active ingredient or their mixture mentioned in the table below. The plants were then cultivated in the greenhouse for 7 days and then inoculated with a aqueous biomalt solution containig the spore suspension of Botrytis cinerea. Then the plants were immediately transferred to a humid chamber. After 5 days at 22 to 24° C. and a relative humidity close to 100% the extent of fungal attack on the leaves was visually assessed as % diseased leaf area.

Septoria tritici [3] = assay: Curative control of leaf blotch on wheat caused by Septoria tritici (Septtr K7); type: in vivo; settings: 250 ppm spray seven days after inoculation (curative), untreated control 90
Protocol: (§1) The spray solutions were prepared in several steps: The stock solution were prepared: a mixture of acetone and/or dimethylsulfoxide and the wetting agent/emulsifier Wettol, which is based on ethoxylated alkylphenoles, in a relation (volume) solvent-emulsifier of 99 to 1 was added to 25 mg of the compound to give a total of 5 ml. Water was then added to total volume of 100 ml. This stock solution was diluted with the described solvent-emulsifier-water mixture to the given concentration. G2 Curative Control of Leaf Blotch on Wheat Caused by Septoria tritici (Septtr K7) Leaves of pot-grown wheat seedling were inoculated with an aqueous spore suspension of Septoria tritici. Then the trial plants were immediately transferred to a humid chamber at 18-22° C. and a relative humidity close to 100%. After 4 days the plants were transferred to a chamber with 18-22° C. and a relative humidity close to 70%. Seven days after inoculation the plants were sprayed to run-off with an aqueous suspension of the active compound or their mixture, prepared as described. Then the plants were transferred back to the chamber with 18-22° C. and a relative humidity close to 70%. After 4 weeks the extent of fungal attack on the leaves was visually assessed as % diseased leaf area.

Septoria tritici [4] = assay: Preventative control of leaf blotch on wheat caused by Septoria tritici (Septtr P7); type: in vivo; settings: 16 ppm spray, wheat inoculated seven days later
Protocol: as §1, with “G2. Preventative” for “G2 Curative”, “P7)” for “K7)”, “seedling were sprayed to run-off with an aqueous suspension of the active compound or their mixture, prepared as described. The plants were allowed to air-dry. Seven days later the plants” for “seedling”, “70%.” for “70%. Seven days after inoculation the plants were sprayed to run-off with an aqueous suspension of the active compound or their mixture, prepared as described. Then the plants were transferred back to the chamber with 18-22° C. and a relative humidity close to 70%.”, “area. […]” for “area.”

Phakopsora pachyrhizi = assay: Protective control of soy bean rust on soy beans caused by Phakopsora pachyrhizi (Phakpa P2); type: in vivo; settings: 250 ppm spray; soy bean inoculated 2 days later; untreated control 90
Protocol: The spray solutions were prepared in several steps:
The stock solution were prepared: a mixture of acetone and/or dimethylsulfoxide and the wetting agent/emulsifier Wettol, which is based on ethoxylated alkylphenoles, in a relation (volume) solvent-emulsifier of 99 to 1 was added to 25 mg of the compound to give a total of 5 ml. Water was then added to total volume of 100 ml. This stock solution was diluted with the described solvent-emulsifier-water mixture to the given concentration.
G3 Protective Control of Soy Bean Rust on Soy Beans Caused by Phakopsora pachyrhizi (Phakpa P2)
Leaves of pot-grown soy bean seedlings were sprayed to run-off with an aqueous suspension, containing the concentration of active ingredient or their mixture as described below. The plants were allowed to air-dry. The trial plants were cultivated for 2 days in a greenhouse chamber at 23-27° C. and a relative humidity between 60 and 80%. Then the plants were inoculated with spores of Phakopsora pachyrhizi. To ensure the success the artificial inoculation, the plants were transferred to a humid chamber with a relative humidity of about 95% and 20 to 24° C. for 24 h. The trial plants were cultivated for fourteen days in a greenhouse chamber at 23-27° C. and a relative humidity between 60 and 80%. The extent of fungal attack on the leaves was visually assessed as % diseased leaf area.

Puccinia recondita = assay: Preventative control of brown rust on wheat caused by Puccinia recondita (Puccrt P7); type: in vivo; settings: 250 ppm spray; wheat inoculated seven days later; untreated plants 90% infected
Protocol: The spray solutions were prepared in several steps: The stock solution were prepared: a mixture of acetone and/or dimethylsulfoxide and the wetting agent/emulsifier Wettol, which is based on ethoxylated alkylphenoles, in a relation (volume) solvent-emulsifier of 99 to 1 was added to 25 mg of the compound to give a total of 5 ml. Water was then added to total volume of 100 ml. This stock solution was diluted with the described solvent-emulsifier-water mixture to the given concentration. G3. Preventative Control of Brown Rust on Wheat Caused by Puccinia recondita (Puccrt P7) The first two developed leaves of pot-grown wheat seedling were sprayed to run-off with an aqueous suspension, containing the concentration of active ingredient or their mixture as described below. Seven days later the plants were inoculated with spores of Puccinia recondita. To ensure the success the artificial inoculation, the plants were transferred to a humid chamber without light and a relative humidity of 95 to 99% and 20 to 24° C. for 24 h. Then the trial plants were cultivated for 6 days in a greenhouse chamber at 20-24° C. and a relative humidity between 65 and 70%. The extent of fungal attack on the leaves was visually assessed as % diseased leaf area.

| SMILES | Growth (%) at 0.008 ppm Alteso (Alternaria solani) [%] | Disease (%) at 150 ppm Botrci P1 (Botrytis cinerea [1]) [%] | Disease (%) at 63 ppm Botrci p7 (Botrytis cinerea [2]) [%] | Disease (%) at 250 ppm Septtr K7 (Septoria tritici [3]) [%] | Disease (%) at 16 ppm Septtr P7 (Septoria tritici [4]; % diseased leaf area after 4 weeks, untreated control 90) [%] | Disease (%) at 16 ppm Septtr P7 (Septoria tritici [4]; section C table) [%] | Disease (%) at 250 ppm Phakpa P2 (Phakopsora pachyrhizi) [%] | infection (% diseased leaf area) Puccrt P7 (Puccinia recondita) [%] |
| --- | --- | --- | --- | --- | --- | --- | --- | --- |
| C#CCOC(Cn1cncn1)c1ccc(Oc2ccc(Cl)cc2)cc1Cl (centres unmarked) [DE 3801223 table 1, compound 30] | 48 | 60 | 80 | 40 | 60 | 60 | 70 |  |
| C#CCOC(Cn1cncn1)(c1ccc(Oc2ccc(Cl)cc2)cc1Cl)C(C)C (centres unmarked) [I-4, 1-[2-[2-chloro-4-(4-chlorophenoxy)phenyl]-3-methyl-2-prop-2-ynoxy-butyl]-1,2,4-triazole] |  |  |  |  |  |  |  | 0 |

Reference: US20140243194A1, “Fungicidal substituted 1--1H-[1,2,4]triazole compounds” (BASF SE, priority 2011, published 2014)
